Our source for the IC50 values is patent US12226425B2, “Inhibitors of ARG1 and/or ARG2” (Arcus Biosciences, Inc., priority 2018, dated 2025).

Some results are limits rather than exact numbers.

The target in the assay is T1, recombinant human ARG1 (Homo sapiens, UniProt P05089).
T1 sequence (P05089 1-322): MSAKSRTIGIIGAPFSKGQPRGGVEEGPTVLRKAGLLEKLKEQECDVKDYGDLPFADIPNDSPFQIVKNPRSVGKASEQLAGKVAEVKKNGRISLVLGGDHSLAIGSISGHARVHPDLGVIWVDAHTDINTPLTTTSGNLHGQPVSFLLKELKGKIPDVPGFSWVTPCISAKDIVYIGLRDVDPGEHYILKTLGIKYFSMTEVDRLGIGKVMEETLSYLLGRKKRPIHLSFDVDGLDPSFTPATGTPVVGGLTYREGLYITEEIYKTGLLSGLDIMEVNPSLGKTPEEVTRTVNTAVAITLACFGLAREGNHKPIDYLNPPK
Nature of the assay: Arginase coupled enzymatic assay using recombinant human ARG1. The format is biochemical. Conditions: 2 nM ARG1, 0.8 mM L-Arginine, 10 mM sodium phosphate pH 7.4, 0.1 mM MnCl2, 37° C., absorption at 570 nm; read-out: hARG1 potency (IC50). The method, then:
Purified recombinant human ARG1 and ARG2 were prepared in 50 mM Bicine, pH 8.5, 100 μM MnCl2, 20% glycerol and 1mM DTT at a final stock concentration of 14.4 μM and 7.56 μM respectively. 2.5 nM of either ARG1 or ARG2 were incubated with varying concentrations of compounds in 10 mM sodium phosphate, pH 7.4, 0.1 mM MnCl2 and 2.5% DMSO in a total volume of 40 μl in a 384-well microplate (Corning™ #3640) at 37° C. for 1 h. The arginase enzymatic reaction was initiated by addition of 10 μl of 4 mM L-Arginine pre-incubated in 10 mM sodium phosphate, pH 7.4, and 0.1 mM MnCl2 at 37° C. into the enzyme and compound mixture, giving the final reaction conditions: 2 nM of ARG1 or ARG2 and 0.8 mM of L-Arginine in 10 mM sodium phosphate, pH 7.4, 0.1 mM MnCl2 and 2% DMSO with varying concentrations of compounds. Following 2 h incubation at 37° C., the arginase enzymatic reaction was stopped by transfer of 10 μl of reaction into 10 μl of detection mix (204 μM Amino-2-Borono-6-Hexanoic Acid, 0.25 μl Arginase Enzyme mix, 0.25 μl Arginase Developer, 0.25 μl Arginase Converter Enzyme in Arginase Assay Buffer from Arginase Activity Colorimetric Assay Kit, BioVision Inc. #K755-100) in a transparent 384-well microplate (Greiner #781801). The plate was immediately put into a plate reader (Synergy™ Neo2 Multi-Mode Microplate Reader) to monitor absorption at 570 nm at 37° C. Absorption values at 12˜20 min were used to calculate compound potency. The value of the DMSO blank (MIN inhibition=100% activity) was used as a negative control. The positive control was established by adding 8 μl of enzyme and DMSO mix into 10 μl of detection mix followed by addition of 2 μl of L-Arginine (MAX inhibition=0% activity). To calculate the percent activity, Equation 1 was used. Abs570nm is the value at a given compound concentration:
A counter-screen was performed to identify any inhibition of the coupling enzymes by the test compounds. 10 μl of 0.26 mM of urea with varying concentrations of compounds in 10 mM sodium phosphate, pH 7.4, 0.1 mM MnCl2 and 2% DMSO were added into 10 μl of detection mix in place of the arginase enzymatic reaction mix. Absorption was monitored at 570 nm as described above. The values of a no substrate blank (without urea; MAX inhibition=0% activity) and a DMSO blank (MIN inhibition=100% activity) were used as positive and negative controls respectively. […] Inactivity in the counter-screen was used to confirm that results accurately reflected IC50 values for ARG1 and ARG2.
For the molecule `NCc1cccc2c1C[C@H](CCCB(O)O)[C@]2(N)C(=O)O`, the IC50 (as a rule, the point on the concentration scale where inhibition reaches its midpoint) was in the range of 0.1 to 1 µM.
Regarding `N[C@@]1(C(=O)O)c2cccc(CO)c2C[C@@H]1CCCB(O)O`, the IC50 was more than 1 µM.
Turning to `N[C@@]1(C(=O)O)c2cccc(-c3cn[nH]c3)c2C[C@@H]1CCCB(O)O`, the IC50 is more than 1 µM.
`Cc1ccc2c(c1)[C@@](N)(C(=O)O)[C@@H](CCCB(O)O)C2`: the IC50 was more than 1 µM.
Next, `C[C@]1(CCCB(O)O)Cc2ccccc2[C@@]1(N)C(=O)O`: more than 1 µM; `CN[C@@]1(C(=O)O)c2cc(CN3CC(F)(F)C3)c(Cl)cc2C[C@@H]1CCCB(O)O`: 0.1 to 1 µM; `CN[C@@]1(C(=O)O)c2cc(-c3ncccc3C)c(F)cc2C[C@@H]1CCCB(O)O`: 0.1 to 1 µM.
Take `CN[C@@]1(C(=O)O)c2cc(N3CC[C@H](O)C3)c(F)cc2C[C@@H]1CCCB(O)O`: the 50% inhibitory concentration (IC50) was in the range of 0.1 to 1 µM.
As for `CNCc1cc2c(cc1F)C[C@H](CCCB(O)O)[C@]2(NC)C(=O)O`, the figure is less than 0.1 µM; as for `CN[C@@]1(C(=O)O)c2cc(CN3CCCC3)c(F)cc2C[C@@H]1CCCB(O)O`, less than 0.1 µM; as for `CN[C@@]1(C(=O)O)c2cc(CN(C)C)c(Cl)cc2C[C@@H]1CCCB(O)O`, less than 0.1 µM.
As to `CN[C@@]1(C(=O)O)c2cc(-c3cccnc3)c(F)cc2C[C@@H]1CCCB(O)O`, the IC50 was in the range of 0.1 to 1 µM.
Take `CN[C@@]1(C(=O)O)c2cc(-c3ccc(CN)cc3)c(Cl)cc2C[C@@H]1CCCB(O)O`: the IC50 is less than 0.1 µM.
Next, `CN[C@@]1(C(=O)O)c2cc(Nc3ccccn3)c(F)cc2C[C@@H]1CCCB(O)O`: 0.1 to 1 µM; `CN[C@@]1(C(=O)O)c2cc([C@H](N)C(F)(F)F)ccc2C[C@@H]1CCCB(O)O`: 0.1 to 1 µM.
On to `CN[C@@]1(C(=O)O)c2cc(Cn3ccnc3N)c(Cl)cc2C[C@@H]1CCCB(O)O`, for which the IC50 was less than 0.1 µM.
Next, `CN[C@@]1(C(=O)O)c2cc(CN)ccc2C[C@@H]1CCCB(O)O`: less than 0.1 µM; `CN[C@@]1(C(=O)O)c2cc(CNC(C)=O)ccc2C[C@@H]1CCCB(O)O`: 0.1 to 1 µM.
On to `CN[C@@]1(C(=O)O)c2cc(-c3ccccc3CN)c(F)cc2C[C@@H]1CCCB(O)O`, for which the IC50 was less than 0.1 µM.
For `CN[C@@]1(C(=O)O)c2cc(CNC(=O)[C@H](C)N)ccc2C[C@@H]1CCCB(O)O`, the IC50 was less than 0.1 µM.
`CN[C@@]1(C(=O)O)c2cc(-c3ccc(CN)cc3)ccc2C[C@@H]1CCCB(O)O`: the IC50 was less than 0.1 µM.
Regarding `CN[C@@]1(C(=O)O)c2cc(CNCC(F)(F)F)c(F)cc2C[C@@H]1CCCB(O)O`, the IC50 fell in the range of 0.1 to 1 µM.
Next, `CN[C@@]1(C(=O)O)c2cc(CN3CCCC3(C)C)c(F)cc2C[C@@H]1CCCB(O)O`: less than 0.1 µM.
As for `CN[C@@]1(C(=O)O)c2cc(CN3CC[C@@H](F)C3)c(F)cc2C[C@@H]1CCCB(O)O`, the figure is less than 0.1 µM.
As for `CN[C@@]1(C(=O)O)c2cc(CN3CCC(F)(F)CC3)c(F)cc2C[C@@H]1CCCB(O)O`, the figure is 0.1 to 1 µM.
With `CC[C@@H](N)c1cc2c(cc1Cl)C[C@H](CCCB(O)O)[C@]2(NC)C(=O)O`, the IC50 is less than 0.1 µM.
Next, `CC[C@H](N)c1cc2c(cc1Cl)C[C@H](CCCB(O)O)[C@]2(NC)C(=O)O`: less than 0.1 µM.
Turning to `CN[C@@]1(C(=O)O)c2cc(-c3cccc(CN)c3)c(Cl)cc2C[C@@H]1CCCB(O)O`, the IC50 is less than 0.1 µM.
As for `CN[C@@]1(C(=O)O)c2cc(CN3CCCCC3)c(F)cc2C[C@@H]1CCCB(O)O`, the figure is less than 0.1 µM; as for `CN[C@@]1(C(=O)O)c2cc(-c3ncccc3N)c(F)cc2C[C@@H]1CCCB(O)O`, 0.1 to 1 µM.
In the case of `CN[C@@]1(C(=O)O)c2cc(Cc3ccccn3)c(Cl)cc2C[C@@H]1CCCB(O)O`, the IC50 lay within 0.1 to 1 µM.
Next, `CN[C@@]1(C(=O)O)c2cc(-c3cc(F)ccc3CN)c(F)cc2C[C@@H]1CCCB(O)O`: less than 0.1 µM.
Next, `CN[C@@]1(C(=O)O)c2cc([C@H](N)C3CC3)c(F)cc2C[C@@H]1CCCB(O)O`: less than 0.1 µM; `CC[C@@H](N)c1cc2c(cc1F)C[C@H](CCCB(O)O)[C@]2(NC)C(=O)O`: less than 0.1 µM; `CC[C@H](N)c1cc2c(cc1F)C[C@H](CCCB(O)O)[C@]2(NC)C(=O)O`: less than 0.1 µM.
For `CN[C@@]1(C(=O)O)c2cc(CN3CCC(c4ccccc4)CC3)c(F)cc2C[C@@H]1CCCB(O)O`, the IC50 was less than 0.1 µM.
As for `CN[C@@]1(C(=O)O)c2cc([C@@H](N)C3CC3)c(Cl)cc2C[C@@H]1CCCB(O)O`, the figure is less than 0.1 µM.
Turning to `CN[C@@]1(C(=O)O)c2cc(-c3ccccc3CCN)c(F)cc2C[C@@H]1CCCB(O)O`, the IC50 is less than 0.1 µM.
Next, `CN[C@@]1(C(=O)O)c2cc(-c3ccc(F)cc3CN)c(F)cc2C[C@@H]1CCCB(O)O`: less than 0.1 µM; `CN[C@@]1(C(=O)O)c2cc(CNC3CC3)c(F)cc2C[C@@H]1CCCB(O)O`: less than 0.1 µM; `CN[C@@]1(C(=O)O)c2cc([C@H](N)C3CC3)c(Cl)cc2C[C@@H]1CCCB(O)O`: less than 0.1 µM.
As for `CN[C@@]1(C(=O)O)c2cc([C@@H](N)C3CC3)c(F)cc2C[C@@H]1CCCB(O)O`, the figure is less than 0.1 µM.
As to `CN[C@@]1(C(=O)O)c2cc(CNC3CCCC3)c(F)cc2C[C@@H]1CCCB(O)O`, the IC50 was less than 0.1 µM.
For the molecule `CN[C@@]1(C(=O)O)c2cc(CNC(C)C)c(F)cc2C[C@@H]1CCCB(O)O`, the IC50 is less than 0.1 µM.
Next, `CN[C@@]1(C(=O)O)c2cc([C@H](N)C(C)C)c(F)cc2C[C@@H]1CCCB(O)O`: less than 0.1 µM; `CN[C@@]1(C(=O)O)c2cc([C@@H](N)C(C)C)c(F)cc2C[C@@H]1CCCB(O)O`: less than 0.1 µM.
As to `CN[C@@]1(C(=O)O)c2cc([C@H](N)C(C)C)c(Cl)cc2C[C@@H]1CCCB(O)O`, the IC50 was less than 0.1 µM.
As for `CN[C@@]1(C(=O)O)c2cc([C@@H](N)C(C)C)c(Cl)cc2C[C@@H]1CCCB(O)O`, the figure is less than 0.1 µM; as for `CN[C@@]1(C(=O)O)c2cc(C3(N)CCC3)c(F)cc2C[C@@H]1CCCB(O)O`, less than 0.1 µM; as for `CN[C@@]1(C(=O)O)c2cc(C3(N)CCC3)c(Cl)cc2C[C@@H]1CCCB(O)O`, less than 0.1 µM.
As for `CN[C@@]1(C(=O)O)c2cc(C3(N)CCC3)ccc2C[C@@H]1CCCB(O)O`, the figure is less than 0.1 µM; as for `CN[C@@]1(C(=O)O)c2cc(C3(N)CCCCC3)c(F)cc2C[C@@H]1CCCB(O)O`, less than 0.1 µM.
As for `CN[C@@]1(C(=O)O)c2cc([C@H](C)N)ccc2C[C@@H]1CCCB(O)O`, the figure is less than 0.1 µM; as for `CN[C@@]1(C(=O)O)c2cc(-c3cccc(F)c3C(C)(C)N)c(F)cc2C[C@@H]1CCCB(O)O`, less than 0.1 µM.
`CN[C@@]1(C(=O)O)c2cc(C(C)(C)CN)c(F)cc2C[C@@H]1CCCB(O)O`: the IC50 was less than 0.1 µM.
As for `CN[C@@]1(C(=O)O)c2cc(C(C)(C)C(C)(C)N)c(F)cc2C[C@@H]1CCCB(O)O`, the figure is less than 0.1 µM.
As to `CN[C@@]1(C(=O)O)c2cc(O[C@@H]3CCC[C@H]3N)c(F)cc2C[C@@H]1CCCB(O)O`, the IC50 is less than 0.1 µM.
For `CN[C@@]1(C(=O)O)c2cc(OCCN)ccc2C[C@@H]1CCCB(O)O`, the IC50 was less than 0.1 µM.
As for `CN[C@@]1(C(=O)O)c2cc(C3(C(C)(C)N)CCC3)c(F)cc2C[C@@H]1CCCB(O)O`, the figure is less than 0.1 µM; as for `CN[C@@]1(C(=O)O)c2cc(CCCN)c(F)cc2C[C@@H]1CCCB(O)O`, less than 0.1 µM; as for `CN[C@@]1(C(=O)O)c2cc(C3(CNC(=O)[C@H](C)N)CCC3)c(F)cc2C[C@@H]1CCCB(O)O`, less than 0.1 µM.
Next, `CN[C@@]1(C(=O)O)c2cc([C@H]3CCCN3)c(F)cc2C[C@@H]1CCCB(O)O`: less than 0.1 µM; `CN[C@@]1(C(=O)O)c2cc([C@@H]3CCCN3)c(F)cc2C[C@@H]1CCCB(O)O`: less than 0.1 µM.
As for `CN[C@@]1(C(=O)O)c2cc(C3(C(N)=O)CCC3)c(F)cc2C[C@@H]1CCCB(O)O`, the figure is 0.1 to 1 µM.
